By IC50 is commonly meant the point on the concentration scale where inhibition reaches its midpoint.

Type in all cases: cell-based
Experiment [1] has as its system MDA-MB-435 (human breast cancer cells). As to the kind of experiment: MTT in vitro anti-tumor activity test, MDA-MB-435.
In experiment [2] the test system is A549 (human lung cancer cells). As to the kind of experiment: MTT in vitro anti-tumor activity test, A549.
The subject of experiment [3] is Colo205 (human colon cancer cells). Briefly: MTT in vitro anti-tumor activity test, Colo205.
The subject of experiment [4] is HepG2 (human hepatoma cells). As to the kind of experiment: MTT in vitro anti-tumor activity test, HepG2.
Setting [5] is: MDA-MB-435, 100 μg/mL, MTT, 72 h.
Where [6] appears, read: MDA-MB-435 human breast cancer cells, MTT, 72 h.
The mark [7] stands for this setting: A549 human lung cancer cells, MTT, 72 h.
Setting [8] is: Colo205 human colon cancer cells, MTT, 72 h.
The mark [9] stands for this setting: HepG2 human hepatoma cells, MTT, 72 h.
Where [10] appears, read: inhibition at 100 μg/mL, MTT assay, 72 h, MDA-MB-435 cells.
Setting [11] is: inhibition at 100 μg/mL, MTT assay, 72 h, A549 cells.
[12] abbreviates: inhibition at 100 μg/mL, MTT assay, 72 h, Colo205 cells.
Setting [13] is: inhibition at 100 μg/mL, MTT assay, 72 h, HepG2 cells.
Where [14] appears, read: MTT assay, 72 h incubation, MDA-MB-435 cells.
The mark [15] stands for this setting: MTT assay, 72 h incubation, A549 cells.
Setting [16] is: MTT assay, 72 h incubation, Colo205 cells.
The mark [17] stands for this setting: MTT assay, 72 h incubation, HepG2 cells.

Molecules are shown by their SMILES. Values after ≈ are worked out from the molar mass of the structure shown.

In the case of `COc1ccc2c(c1)C(=O)c1c-2c(OCCN2CCCCC2)nc2cc(OC)c(OC)cc12` [Compound 24], the “MDA-MB-435 100 μg/mL IC %” value in experiment [1] (setting [5]) is 90.85%. Besides, in experiment [1] (setting [6]), the “MDA-MB-435 IC50” value was 8.92 µg/mL. The “A549 100 μg/mL IC %” value in experiment [2] (A549, 100 μg/mL, MTT, 72 h) was found to be 93.92%. In addition, the “A549 IC50” value in experiment [2] (setting [7]) worked out at 10.32 µg/mL. Moreover, the “Colo205 100 μg/mL IC %” value in experiment [3] (Colo205, 100 μg/mL, MTT, 72 h) was determined as 98.38%. Besides, in experiment [3] (setting [8]), the “Colo205 IC50” value amounted to 5.15 µg/mL. In experiment [4] (HepG2, 100 μg/mL, MTT, 72 h), the “HepG2 100 μg/mL IC %” value was determined as 98.55%. Further, in experiment [4] (setting [9]), the “HepG2 IC50” value is 10.78 µg/mL.

For `COc1ccc2c(c1)C(=O)c1c-2c(OCCCN(C)C)nc2ccc(OC)cc12` [Compound 16], the “MDA-MB-435 100 μg/mL IC %” value in experiment [1] (setting [5]) is 100%. Moreover, the “MDA-MB-435 IC50” value in experiment [1] (setting [6]) worked out at 4.09 µg/mL. In addition, the “A549 100 μg/mL IC %” value in experiment [2] (A549, 100 μg/mL, MTT, 72 h) is recorded as 100%. In addition, in experiment [2] (setting [7]), the “A549 IC50” value stood at 2.91 µg/mL. In addition, the “Colo205 100 μg/mL IC %” value in experiment [3] (Colo205, 100 μg/mL, MTT, 72 h) stood at 100%. Further, in experiment [3] (setting [8]), the “Colo205 IC50” value worked out at 3.49 µg/mL. In experiment [4] (HepG2, 100 μg/mL, MTT, 72 h), the “HepG2 100 μg/mL IC %” value turned out to be 100%. The “HepG2 IC50” value in experiment [4] (setting [9]) was 3.48 µg/mL.

For `CC[C@@]1(O)C(=O)OCc2c1cc1n(c2=O)Cc2cc3cc(O)ccc3nc2-1` [HCPT, 10-hydroxycamptothecin, reference compound], the IC50 is 0.00127 µg/mL (≈ 0.00349 µM) in experiment [1] (Homo sapiens, MDA-MB-435, 72 h, read-out: MDA-MB-435 IC50); 0.00364 µg/mL (≈ 0.00999 µM) in experiment [2] (Homo sapiens, A549, 72 h, read-out: A549 IC50); 0.0049 µg/mL (≈ 0.0134 µM) in experiment [3] (Homo sapiens, COLO 205, 72 h, read-out: Colo205 IC50); 0.147 µg/mL (≈ 0.403 µM) in experiment [4] (Homo sapiens, HepG2, 72 h, read-out: HepG2 IC50). In addition, the “MDA-MB-435 100 μg/mL IC %” value in experiment [1] (setting [5]) and in experiment [1] (setting [10]) was 96.71% in each case. The “A549 100 μg/mL IC %” value in experiment [2] (A549, 100 μg/mL, MTT, 72 h) came to 84.68%; in experiment [2] (setting [11]), 84.68%. For the same compound, the “Colo205 100 μg/mL IC %” value is 88.14% in experiment [3] (Colo205, 100 μg/mL, MTT, 72 h) and 88.14% in experiment [3] (setting [12]). In addition, the “HepG2 100 μg/mL IC %” value in experiment [4] (HepG2, 100 μg/mL, MTT, 72 h) worked out at 100%; in experiment [4] (setting [13]), 100%.

On to `COc1ccc2c(c1)C(=O)c1c-2c(=O)n(CCN2CCOCC2)c2cc(OC)c(OC)cc12` [Compound 45], for which, in experiment [1] (setting [14]), the “MDA-MB-435 IC50” value is 7.86 µg/mL. Further, the “MDA-MB-435 100 μg/mL IC %” value in experiment [1] (setting [10]) is given as 72.95%. Besides, the “A549 IC50” value in experiment [2] (setting [15]) is 37.85 µg/mL. The “A549 100 μg/mL IC %” value in experiment [2] (setting [11]) is 62.84%. Moreover, the “Colo205 IC50” value in experiment [3] (setting [16]) worked out at 16.76 µg/mL. Further, the “Colo205 100 μg/mL IC %” value in experiment [3] (setting [12]) came out at 66.89%. Also, the “HepG2 IC50” value in experiment [4] (setting [17]) was determined as 6.27 µg/mL. The “HepG2 100 μg/mL IC %” value in experiment [4] (setting [13]) is 84.31%.

As for `COc1ccc2c(c1)C(=O)c1c-2c(OCCN2CCCCC2)nc2ccc(OC)cc12` [Compound 15], the “MDA-MB-435 100 μg/mL IC %” value in experiment [1] (setting [5]) is 99.08%. Besides, the “MDA-MB-435 IC50” value in experiment [1] (setting [6]) turned out to be 6.88 µg/mL. In addition, the “A549 100 μg/mL IC %” value in experiment [2] (A549, 100 μg/mL, MTT, 72 h) came to 100%. Further, the “A549 IC50” value in experiment [2] (setting [7]) is 6.95 µg/mL. Also, the “Colo205 100 μg/mL IC %” value in experiment [3] (Colo205, 100 μg/mL, MTT, 72 h) was found to be 100%. Moreover, the “Colo205 IC50” value in experiment [3] (setting [8]) was determined as 3.13 µg/mL. Also, the “HepG2 100 μg/mL IC %” value in experiment [4] (HepG2, 100 μg/mL, MTT, 72 h) is given as 100%. Besides, in experiment [4] (setting [9]), the “HepG2 IC50” value was determined as 5.02 µg/mL.

Turning to `COc1ccc2c(c1)C(=O)c1c-2c(OCCN2CCCC2)nc2ccccc12` [Compound 3], in experiment [1] (setting [5]), the “MDA-MB-435 100 μg/mL IC %” value was determined as 100%. The “MDA-MB-435 IC50” value in experiment [1] (setting [6]) came out at 26.55 µg/mL. In addition, the “A549 100 μg/mL IC %” value in experiment [2] (A549, 100 μg/mL, MTT, 72 h) was found to be 99.90%. For the same compound, the “A549 IC50” value in experiment [2] (setting [7]) came to 14.39 µg/mL. Moreover, in experiment [3] (Colo205, 100 μg/mL, MTT, 72 h), the “Colo205 100 μg/mL IC %” value is recorded as 92.33%. In addition, in experiment [3] (setting [8]), the “Colo205 IC50” value was 10.97 µg/mL. Also, in experiment [4] (HepG2, 100 μg/mL, MTT, 72 h), the “HepG2 100 μg/mL IC %” value is recorded as 80.79%. Also, in experiment [4] (setting [9]), the “HepG2 IC50” value worked out at 24.99 µg/mL.

For `CN(C)CCCn1c(=O)c2c(c3ccccc31)C(=O)c1cc(Cl)ccc1-2` [Compound 40], the “MDA-MB-435 IC50” value in experiment [1] (setting [14]) was 1.52 µg/mL. In experiment [1] (setting [10]), the “MDA-MB-435 100 μg/mL IC %” value was 100%. In experiment [2] (setting [15]), the “A549 IC50” value is 3.25 µg/mL. Also, the “A549 100 μg/mL IC %” value in experiment [2] (setting [11]) was determined as 86.70%. Besides, the “Colo205 IC50” value in experiment [3] (setting [16]) turned out to be 3.16 µg/mL. Also, the “Colo205 100 μg/mL IC %” value in experiment [3] (setting [12]) is 100%. Further, in experiment [4] (setting [17]), the “HepG2 IC50” value was 11.51 µg/mL. For the same compound, the “HepG2 100 μg/mL IC %” value in experiment [4] (setting [13]) amounted to 100%.

`COc1ccc2c(c1)C(=O)c1c-2c(OCCCN(C)C)nc2cc(OC)c(OC)cc12` [Compound 25]: in experiment [1] (setting [5]), the “MDA-MB-435 100 μg/mL IC %” value came to 85.38%. The “MDA-MB-435 IC50” value in experiment [1] (setting [6]) amounted to 2.66 µg/mL. Besides, in experiment [2] (A549, 100 μg/mL, MTT, 72 h), the “A549 100 μg/mL IC %” value is reported as 100%. The “A549 IC50” value in experiment [2] (setting [7]) came to 2.02 µg/mL. The “Colo205 100 μg/mL IC %” value in experiment [3] (Colo205, 100 μg/mL, MTT, 72 h) stood at 90.36%. Besides, the “Colo205 IC50” value in experiment [3] (setting [8]) is 1.15 µg/mL. Besides, in experiment [4] (HepG2, 100 μg/mL, MTT, 72 h), the “HepG2 100 μg/mL IC %” value was 89.70%. In addition, the “HepG2 IC50” value in experiment [4] (setting [9]) was 1.58 µg/mL.

In the case of `COc1ccc2c(c1)C(=O)c1c-2c(OCCN(C)C)nc2ccc(OC)cc12` [Compound 13], the “MDA-MB-435 100 μg/mL IC %” value in experiment [1] (setting [5]) was found to be 100%. Besides, the “MDA-MB-435 IC50” value in experiment [1] (setting [6]) amounted to 4.34 µg/mL. For the same compound, the “A549 100 μg/mL IC %” value in experiment [2] (A549, 100 μg/mL, MTT, 72 h) is recorded as 100%. In addition, the “A549 IC50” value in experiment [2] (setting [7]) was 17.27 µg/mL. Besides, the “Colo205 100 μg/mL IC %” value in experiment [3] (Colo205, 100 μg/mL, MTT, 72 h) was 96.52%. Moreover, the “Colo205 IC50” value in experiment [3] (setting [8]) was 1.79 µg/mL. For the same compound, the “HepG2 100 μg/mL IC %” value in experiment [4] (HepG2, 100 μg/mL, MTT, 72 h) was determined as 100%. Besides, in experiment [4] (setting [9]), the “HepG2 IC50” value was 2.47 µg/mL.
